In patent US20250035641A1, “COMPOSITIONS AND METHODS RELATED TO PROTEIN LABELING” (The Chinese University of Hong Kong, priority 2023, published 2025):

Tests used:
Format in all cases: cell-based
[1] = biological target: T1, HTN-CK2α (Homo sapiens, UniProt P68400); assay: Immunoblot of HTN-CK2α O-GlcNAcylation in HEK293T cells co-expressing fOGT
From the text: Ck2α is a well-studied OGT substrate.^17,25 Its Ser347 is conservatively O-GlcNAcylated and this modification was reported to affect its kinase activity.^16,17 We first co-expressed HTN-Ck2α and fOGT in HEK293T cells at different ratio and found the basal O-GlcNAcylation level of HTN-Ck2α was higher than what we detected in the case of HTN-BRD4. Therefore, a lower ratio of fOGT expression (1:100) was selected for the assessment of OGTAC potency (FIG. 9). […] The induction of specific O-GlcNAcylation on HTN-Ck2α was further confirmed by mass-shift assay. […] To validate the direct binding to both fOGT and HTN-Ck2α is critical, we exploited AP 1867 and rhodamine ligand, which bind to fOGT and HTN-Ck2α respectively, to co-treat with OGTAC-1.
During immunoblotting study, we noticed that even for whole cell lysate (WCL), RL2 antibody band (green) and HTN-CK2α protein band (red) are perfectly overlapped and clearly distinguishable from other bands on blot (FIG. 6B). We assessed the OGTAC treatment effects by quantifying the RL2 signal that is overlapping with HTN-Ck2α in WCL, and found they are corresponding with the results achieved by IP-WB method (FIG. 6C). Therefore, we quantify the intensity of RL2 band that overlapping with HTN-CK2α level instead of IP CK2α in later study.
For each IP reaction, 2.2×10^6 HEK293T cells were seed in 10 cm dish. After cells attached, transfection reagents and plasmids were prepared and added in DMEM. After 24 h transfection, media were replaced by fresh warm complete media with DMSO or probes. For washout study, after 4 h treatment, media with DMSO or OGTAC-4 (500 nM) were replaced by fresh media with DMSO or AP1867 (50 μM) for further incubation. After certain time of OGTACs treatment, cells were collected by cold PBS and lysed by 200 μL complete IP lysis buffer. The lysate was incubated on ice for 20 min, spun down at 14,000 RPM at 4° C. for 15 mins, and the supernatant were collected for bicinchoninic acid (BCA) assay and normalized to a final 2 mg/mL. For input, 20 μL of diluted sample was reacted with equal volume of 10 μM TMR ligand in IP lysis buffer and rotate gently at RT for 15 mins. The remaining samples were subjected to protein A/G magnetic beads (MedChemExpress, HY-K0202), which pre-binding with protein target protein antibody. For samples for LC-MS/MS or HTN-BRD4 mutant constructs. Halo-Trap Magnetic Agarose (Proteintech, otma) was used to incubate with protein lysates. After gentle rotation at 4° C. for at least 16 h, the beads were washed with IP lysis buffer and boiled in 40 μL 2×SDS-loading buffer (Biorad #1610747) for 5 mins to elute proteins from beads. Eluted samples were directly subjected into WB analysis. To get stronger signal of RL2, we used anti-mouse-HRP (Cell signaling, #7076) as secondary antibody for RL2 and anti-rabbit-DyLight 488 (Invitrogen, #35552) as secondary antibody for total target proteins.
In general, cells (from 12 well plate) were lysed by 80 μl RIPA lysis buffer (Thermo Scientic 89901) supplemented with 20 μM OGA inhibitor (Thaimet G, Bidepharm BD571819) and 100X protease inhibitor (MedChemExpress, HY-K0010), incubated on ice for 20 min, spun down at 14,000 RPM at 4° C. for 15 mins, and the supernatant were collected for bicinchoninic acid (BCA) assay and normalizedeto a final 2 mg/mL concentration. About 30 μg of protein samples were loaded for sodium dodecyl sulfatepolyacrylamide gel electrophoresis (SDS-PADE) and blotted with indicated antibodies.
Target sequence in this assay (P68400 with tags, fused parts or gaps): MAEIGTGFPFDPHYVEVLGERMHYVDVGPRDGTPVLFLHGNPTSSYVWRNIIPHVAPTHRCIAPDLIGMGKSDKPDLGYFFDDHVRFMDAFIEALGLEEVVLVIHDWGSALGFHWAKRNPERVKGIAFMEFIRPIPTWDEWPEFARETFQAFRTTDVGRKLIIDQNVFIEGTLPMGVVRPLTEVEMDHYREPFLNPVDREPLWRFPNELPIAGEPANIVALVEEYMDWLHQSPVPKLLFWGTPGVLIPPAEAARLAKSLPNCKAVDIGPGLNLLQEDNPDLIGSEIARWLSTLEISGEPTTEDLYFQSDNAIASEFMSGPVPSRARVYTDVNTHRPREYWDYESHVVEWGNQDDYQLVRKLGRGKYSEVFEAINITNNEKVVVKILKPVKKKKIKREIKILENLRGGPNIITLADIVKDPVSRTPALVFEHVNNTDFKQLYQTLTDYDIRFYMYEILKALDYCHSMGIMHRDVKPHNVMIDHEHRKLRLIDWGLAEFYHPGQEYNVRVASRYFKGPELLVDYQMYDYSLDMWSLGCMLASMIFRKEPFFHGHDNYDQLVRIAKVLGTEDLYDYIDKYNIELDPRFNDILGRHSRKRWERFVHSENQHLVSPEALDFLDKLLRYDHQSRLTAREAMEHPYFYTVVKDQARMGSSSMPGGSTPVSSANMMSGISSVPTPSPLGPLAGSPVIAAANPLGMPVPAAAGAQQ
Target sequence in this assay (P62942+O15294 fused P62942:F37V partner): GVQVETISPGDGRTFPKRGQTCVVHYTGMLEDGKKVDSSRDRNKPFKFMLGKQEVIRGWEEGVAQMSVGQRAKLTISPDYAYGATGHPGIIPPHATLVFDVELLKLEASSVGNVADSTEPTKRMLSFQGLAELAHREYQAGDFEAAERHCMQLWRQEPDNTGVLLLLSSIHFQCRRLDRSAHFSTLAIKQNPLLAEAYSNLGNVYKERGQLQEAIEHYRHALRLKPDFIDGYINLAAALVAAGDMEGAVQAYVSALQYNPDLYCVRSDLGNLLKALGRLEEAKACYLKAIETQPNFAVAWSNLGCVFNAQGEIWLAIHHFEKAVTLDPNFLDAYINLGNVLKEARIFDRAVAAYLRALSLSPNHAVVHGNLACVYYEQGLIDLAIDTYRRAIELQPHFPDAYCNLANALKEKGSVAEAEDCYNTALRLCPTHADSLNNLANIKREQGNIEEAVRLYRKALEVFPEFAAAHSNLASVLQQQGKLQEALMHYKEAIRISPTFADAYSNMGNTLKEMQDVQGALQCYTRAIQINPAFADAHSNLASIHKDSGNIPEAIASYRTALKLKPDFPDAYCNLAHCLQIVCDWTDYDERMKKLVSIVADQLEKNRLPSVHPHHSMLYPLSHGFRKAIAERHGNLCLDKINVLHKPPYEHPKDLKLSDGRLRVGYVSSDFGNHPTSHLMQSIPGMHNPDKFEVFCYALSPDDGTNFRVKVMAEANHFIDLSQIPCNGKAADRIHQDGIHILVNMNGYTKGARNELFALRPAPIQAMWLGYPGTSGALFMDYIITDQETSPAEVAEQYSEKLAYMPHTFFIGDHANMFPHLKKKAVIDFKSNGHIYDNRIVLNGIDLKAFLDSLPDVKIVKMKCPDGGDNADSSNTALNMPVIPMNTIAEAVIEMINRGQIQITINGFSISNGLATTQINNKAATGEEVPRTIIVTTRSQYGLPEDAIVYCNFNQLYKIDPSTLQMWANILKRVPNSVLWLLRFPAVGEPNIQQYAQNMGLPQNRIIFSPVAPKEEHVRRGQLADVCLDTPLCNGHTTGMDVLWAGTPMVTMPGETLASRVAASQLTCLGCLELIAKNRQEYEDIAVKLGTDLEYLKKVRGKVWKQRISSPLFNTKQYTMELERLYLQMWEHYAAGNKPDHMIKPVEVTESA

[2] = biological target: T1, HTN-CK2α; assay: Immunoblot of HTN-CK2α O-GlcNAcylation in HeLa cells; conditions: 125 nM, 8 h
Protocol: FIG. 12: Immunoblotting analysis of effects of OGTAC-1 on HTN-CK2αin HeLa cell line. HeLa cells were transfected with fOGT:HTN-CK2α=1:0.1 for 24 h, followed by treatment of OGTAC-1 (125 nM) or other probes for 8 h. For OGTAC-1H, ‘++’ denotes 10-fold concentration of OGTAC-1, while “+” denote the same concentration of OGTAC-1. The quantification was conducted by immunoblot signal of RL2 relative to CK2α. as the mean±s.e.m. of n=3 biologically independent experiments. Statistical significance was calculated by unpaired t-tests.
S347 is a well-defined O-GlcNAcylation site on CK2α, while S348 is the potential alternative site as it is adjacent to S347. To verify the O-GlcNAc sites induced by OGTAC-1 in HTN-CK2α. we constructed HTN-CK2α plasmids with S347A and S347A/S348A mutations. […] Collectively, these findings support the physiological relevance of O-GlcNAcylation induced by OGTAC-1.
Target sequence in this assay (P68400 with tags, fused parts or gaps): as the sequence (P68400 with tags, fused parts or gaps) above
Target sequence in this assay (P62942+O15294 fused P62942:F37V partner): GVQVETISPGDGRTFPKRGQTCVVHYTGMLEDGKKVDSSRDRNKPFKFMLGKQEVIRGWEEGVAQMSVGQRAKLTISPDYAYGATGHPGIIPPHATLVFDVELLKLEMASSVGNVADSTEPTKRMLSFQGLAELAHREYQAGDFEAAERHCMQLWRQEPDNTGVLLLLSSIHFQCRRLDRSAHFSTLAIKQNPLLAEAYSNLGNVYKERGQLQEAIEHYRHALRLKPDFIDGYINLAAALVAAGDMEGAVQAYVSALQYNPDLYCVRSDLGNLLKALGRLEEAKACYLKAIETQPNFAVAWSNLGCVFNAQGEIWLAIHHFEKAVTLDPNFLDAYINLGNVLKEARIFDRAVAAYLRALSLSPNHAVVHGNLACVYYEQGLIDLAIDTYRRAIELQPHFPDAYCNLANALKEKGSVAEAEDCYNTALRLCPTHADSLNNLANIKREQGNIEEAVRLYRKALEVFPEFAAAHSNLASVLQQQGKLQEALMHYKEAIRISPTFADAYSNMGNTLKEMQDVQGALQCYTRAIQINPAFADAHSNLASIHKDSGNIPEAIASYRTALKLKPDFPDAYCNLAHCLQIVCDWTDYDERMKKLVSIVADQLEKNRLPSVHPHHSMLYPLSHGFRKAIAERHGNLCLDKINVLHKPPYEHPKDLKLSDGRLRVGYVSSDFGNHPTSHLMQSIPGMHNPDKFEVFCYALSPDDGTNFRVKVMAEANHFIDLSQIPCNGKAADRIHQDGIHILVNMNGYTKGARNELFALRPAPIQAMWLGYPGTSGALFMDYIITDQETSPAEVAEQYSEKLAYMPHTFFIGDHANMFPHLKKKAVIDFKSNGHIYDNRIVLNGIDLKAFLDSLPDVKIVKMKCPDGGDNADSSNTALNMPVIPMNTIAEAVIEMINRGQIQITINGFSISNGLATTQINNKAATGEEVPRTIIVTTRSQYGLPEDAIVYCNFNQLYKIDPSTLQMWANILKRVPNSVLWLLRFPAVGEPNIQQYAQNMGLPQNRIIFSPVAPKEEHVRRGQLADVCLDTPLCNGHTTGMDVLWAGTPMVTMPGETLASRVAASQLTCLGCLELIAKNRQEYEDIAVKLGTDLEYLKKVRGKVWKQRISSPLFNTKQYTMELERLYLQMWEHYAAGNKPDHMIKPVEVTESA

[3] = biological target: T2, endogenous BRD4 (Homo sapiens, UniProt O60885); assay: IP-WB of endogenous BRD4 in cell line stably expressing fOGT
T2 construct: endogenous BRD4 in cell line stably expressing fOGT; endogenous in cells
From the text: We next pursued the induction of POI O-GlcNAcylation independent of Halotag; this could facilitate the induction of O-GlcNAcylation on endogenous POIs for their functional dissection. […] As OGTAC-4 directly recruit BRD4, we first try to assess its potency on endogenous BRD4 in cell line stably expressing fOGT. […] Then, we overexpressed BRD4 together with fOGT in HEK293T cells to accommodate the readout to fit in IP-WB detection limit. As expected, in the co-expression system, we validated the O-GlcNAcylation inducing effect of OGTAC-4. […] Of note, OGTAC-4 promoted BRD4 O-GlcNAcylation and the formation of a stable ternary complex between BRD4 and fOGT at concentrations as low as 3 nM (FIG. 4C & FIG. 14). […] This may be due to the sub-stoichiometric catalytic activity of OGTAC-4; at lower concentration, OGTAC-4 can still be effective because after enzymatic transfer of O-GlcNAc from fOGT active site to BRD4, the BRD4 would dissociate from the original ternary complex and other unmodified BRD4 could be recruited to fOGT by OGTAC-4. However, OGTAC-1 covalently linked to HTN-BRD4, and AP1867 binds tightly to fOGT. therefore, once HTN-BRD4 dissociated, free OGTAC-1 molecules may form binary complex with fOGT and inhibit other HTN-BRD4 from formation of new ternary complex. […]

CC[C@H](C(=O)N1CCCC[C@H]1C(=O)O[C@H](CCc1ccc(OC)c(OC)c1)c1cccc(OCC(=O)NCCOCCOCCCCCCCl)c1)c1cc(OC)c(OC)c(OC)c1 [OGTAC-1, (R)-1-(3-(2-((2-(2-((6-chlorohexyl)oxy)ethoxy)ethyl)amino)-2-oxoethoxy)phenyl)-3-(3,4-dimethoxyphenyl)propyl (S)-1-((S)-2-(3,4,5-trimethoxyphenyl)butanoyl) piperidine-2-carboxylate]
time at which induction of HTN-CK2α O-GlcNAcylation happened ([1]; 250 nM): ≤ 4 h
time of peak induction of HTN-CK2α O-GlcNAcylation ([1]; 250 nM): 8 h
fold increase of O-GlcNAcylation on HTN-CK2α, whole cell lysate WB ([1]; 500 nM and 1 μM): higher fold increase of O-GlcNAcylation
concentration of peak induction of HTN-CK2α O-GlcNAcylation ([1]; 24 h treatment): 1 µM
HTN-CK2α O-GlcNAcylation inducing effect among OGTAC-1/2/3 ([1]; IP-WB, fOGT ratio 1:100): prevailed among 3 OGTACs
effect on HTN-CK2α in HeLa cells [2]: confirmed the effect

CC[C@H](C(=O)N1CCCC[C@H]1C(=O)O[C@H](CCc1ccc(OC)c(OC)c1)c1cccc(OCC(=O)NCCCCCCNC(=O)C[C@@H]2N=C(c3ccc(Cl)cc3)c3c(sc(C)c3C)-n3c(C)nnc32)c1)c1cc(OC)c(OC)c(OC)c1 [OGTAC-4, (R)-1-(3-(2-((6-(2-((S)-4-(4-chlorophenyl)-2,3,9-trimethyl-6H-thieno[3,2-f[]8 1,2,4]triazolo[4,3-a][1,4]diazepin-6-yl)acetamido)hexyl)amino)-2-oxoethoxy)phenyl)-3-(3,4-dimethoxyphenyl)propyl (S)-1-((S)-2-(3,4,5-trimethoxyphenyl)butanoyl)piperidine-2-carboxylate]
O-GlcNAc signal on endogenous BRD4 (IP-WB, RL2) [3]: failed to detect any signal
